# Reference: patent publication US20030215531A1, “Compositions and methods of use for extracts of Rutaceae plants” (priority 2000, published 2003)
# “Also recorded” adds a separate entry of the source. Counter-ions that a name gives are not always drawn.
# Key:
# rats = test: formalin test in rats; type: in vivo
# Excerpt: The analgesic effects of the extracts of this invention were studied using the formalin test (Dubuisson, D., Dennis, S. G., “The formalin test: a quantitative study of the analgesic effects of morphine, meperidine, and brainstem stimulation in rats and cats,” Pain, 1977, 4, pp. 161-164), a commonly used animal model to study nociceptive processes and analgesic drug effects.
# Male Holtzman rats weighing 150-175 g were obtained from Harlan Spraque Dawley (Indianapolis, Ind.) and housed under a 12:12 h light/dark cycle in individual stainless steel cages in a temperature and humidity controlled vivarium. Food and water were available ad libitum. In session one, the animals were allowed to acclimate to the colony room for two days and handled for an additional two days prior to conducting the experiment in order to reduce experimenter-related stress. In session two, animals were allowed to acclimate to the colony room for four days, handled for three days, and acclimated to the apparatus for two days prior to conducting the experiment in order to reduce experimenter-related stress. In both sessions, the animals were food-deprived for 12 h before administering the test articles.
# A Plexiglas viewing chamber (30×30×30 cm) was used for data collection.
# Naproxen was used as a reference. Samples were tested at a concentration of 100 mg/kg except Formulation J which was tested at 200 mg/kg.
# In session one, 10 minutes before the formalin observation period, the formulations were delivered via gavage in a volume of 0.5 ml to obtain a minimum response interval of 30 min between the injection time and the second phase of the formalin response. In session two, formulations were delivered via gavage of 1 ml. Each animal received two formulation dosings before the tests: 70 and 10 minutes before the beginning of the formalin observation period in order to obtain a 90 and 30 min injection intervals before the second phase of the formalin response.
# Immediately after administration of 0.05 ml of 2.5% formalin into the hindpaw, rats were placed into 30×30×30 cm Plexiglas observation chamber. The observation session lasted 50 min. A dependent measure was the amount of time in which the injected paw was 1) in a lift position and 2) licked, bitten or shaken across ten 5-min blocks. A composite pain score as a function of ten 5-min blocks was calculated according to the procedures of Watson et al. (Watson, G. S., Sufka, K. J., Coderre, T. J., “Optimal scoring strategies and weights for the formalin test in rats,” Pain, 1997, 70, pp. 53-58). Sample sizes were n=5-6 rats per group. […]
# Data were screened for homogeneity of variance and analyzed using repeated measures analysis of variance (ANOVA) and Fisher's LSD procedures.
# chicks = settings: previous research with this chick model (Watson et al., 1996, 1999); cited from earlier work
structure (smiles),measurement,setting,value
"COc1ccc2cc3[n+](cc2c1OC)CCc1cc2c(cc1-3)OCO2 [Formulation K, berberine HCl]","effect on formalin-induced pain behaviors (CPS), in words","rats; session 1, 100 mg/kg by gavage 10 min before observation, HCl, 100 mg/kg",attenuated pain-related behaviors during the second phase; also recorded: reduced pain during the fourth to the tenth time block
COc1ccc2cc([C@H](C)C(=O)O)ccc2c1 [Naproxen],"effect on formalin-induced pain behaviors (CPS), in words","rats; session 1, 100 mg/kg by gavage 10 min before observation, 100 mg/kg",did not affect pain behaviors
same,"effect on formalin-induced pain behaviors (CPS), in words","rats; session 1, 100 mg/kg by gavage 10 min before observation, listed as naproxen, 100 mg/kg",had no effect on pain
same,"effect on formalin-induced pain behaviors (CPS), in words","rats; session 2, two gavage dosings 70 and 10 min before observation, Naproxen 100 mg, Formulation J 200 mg/kg, b186 prints 100 mg/kg",attenuated the second phase of the formalin response
Cc1nnc2n1-c1ccc(Cl)cc1C(c1ccccc1)=NC2 [alprazolam],ED50 in attenuating separation-induced DVoc,chicks,0.19 mg/kg
"CNC1=Nc2ccc(Cl)cc2C(c2ccccc2)=[N+]([O-])C1 [chlorodiazepoxide, chlordiazepoxide]",ED50 in attenuating separation-induced DVoc,chicks,3.75 mg/kg
O=C1Nc2ccc(Cl)cc2C(c2ccccc2Cl)=NC1O (stereo not shown) [lorazepam],ED50 in attenuating separation-induced DVoc,chicks,0.34 mg/kg
